Assay results reported in patent US20190211024A1 (priority 2016, published 2019).
“And” between values parts separate entries of the source, which are not always exact repeats. Identical values can stand only once. Counter-ions that a name gives are not always drawn.

System: influenza virus A/California/07/09 (H1N1) pdm09
Parameters: species or system mice
Details: mouse, in vivo

SMILES	Time after infection within which the drug must be administered for greatest efficacy [h]	Mice rescued from infection [%]	Index of protection % (100 mg/kg/day, dihydrate)	AST (average life span of animals) (po, 100 mg/kg/day) [cyr.]	Mortality by day: 7 (po, 100 mg/kg/day)	Mortality by day: 8 (po, 100 mg/kg/day)	Mortality by day: 10 (po, 100 mg/kg/day)	Mortality, % (po, 100 mg/kg/day) [%]
CCOC(=O)C1=C[C@@H](OC(CC)CC)[C@H](NC(C)=O)[C@@H](N)C1 [Tamiflu]	≤ 24							
CSc1nc2[nH]nc([N+](=O)[O-])c(=O)n2n1 [Triazavirin, sodium salt of 2-methylthio-6-nitro-1,2,4-triazolo[5,1-c]1,2,4-triazine-7-one, dihydrate]		80	63% and 62.5%	13.7	1	1	1	20.0
